Where a SMILES comes first, the peptide text is derived from it. The star is where a group is joined. Palmitoyl = CCCCCCCCCCCCCCCC(=O)*
Tests used:
Assay in all cases: Mass spectrometry of proteins pulled down with biotinylated SA‐E (SA‐Eb) from human plasma
Assay type in all cases: binding
human plasma proteins [1] = target: T1, human plasma proteins (Homo sapiens, UniProt P02656)
T1 construct: incubated with 50% pooled human plasma at 37 °C for 2 h; from tissue; host or cells: pooled human plasma (50%)
Procedure: (§1) Samples were prepared for mass spectrometry analysis via a pull‐down of a biotinylated version of the SA‐E probe (SA‐Eb, 100 µM) incubated with 50% pooled human plasma at 37 °C for 2 h. Before incubation with the SA‐Eb‐plasma mixture, magnetic streptavidin‐coated beads (Dynabeads MyOne Streptavidin T1, Invitrogen, 65601) were washed with PBS (10 mM, pH 7.4) then blocked with 1% casein equal to the total initial volume of beads for 15 min at room temperature. After blocking, beads were washed again with PBS. Beads were then combined with SA‐Eb‐plasma solution, 25 µL beads to 200 µL mixture. This mixture was then incubated at room temperature for 30 min. After incubation, the remaining solution was removed, and the beads were washed five times with PBS. Bound SA‐Eb was eluted from beads in 30 µL 0.5% Triton X‐100 solution. Magnetic beads were then removed, and the elution was collected for analysis. For plasma control, the incubation with SA‐Eb step was skipped, and 50% plasma in PBS was incubated with beads and washed and eluted using the same method as the SA‐Eb‐plasma solution. The elution solutions were then analyzed by the Proteomics Shared Resource facility at Oregon Health & Science University (See Supporting Information for details).
(§2) Sample Preparation. Eluted plasma samples were dried down and stored at -80°C. Samples were thawed at room temperature for 10 min, and 75 µL of SDS protein extraction buffer (5% SDS, 50 mM […]; TEAB) was added to each sample. Samples were shaken in a Thermo mixer for 10 minutes at room temperature and centrifuged at 10,000 g for 5 min. Each sample was transferred from a 0.5 mL tube to a 1.5 mL LoBind centrifuge tube. Samples were reduced by adding 3.4 µL of 0.5 M dithiothreitol and incubated at 95 °C for 10 min. Samples were alkylated by the addition of 6.8 µL of 0.5 M iodoacetamide and were incubated at room temperature for 30 min in the dark. Samples were then acidified by the addition of 8.52 µL of 12% phosphoric acid, and 562 µL of SDS protein binding buffer (90% methanol, 100 mM TEAB, pH 7.51). Samples were transferred 165 µL at a time to S-trap micro columns (Protifi, Farmingdale, NY) and inserted into 1.5 mL of polypropylene tubes. Samples were centrifuged at 4,000 g for 3 min between each addition of the sample. S-trap columns were washed 6 times using 150 µL of 90% methanol containing 100 mM of TEAB followed by centrifugation at 4,000g for 3 min between each wash step. S-trap columns containing the bound sample proteins were transferred to 1.5 mL LoBind centrifuge tubes and 40 µL of 80 ng/µL sequencing grade modified trypsin (Pierce TM Trypsin Protease MS-Grade, XG348166) in 50 mM TEAB was added. S-trap columns were loosely capped, and digestion was performed at 37°C overnight in a humidified chamber.
(§3) After completion of digestion, peptides were eluted by sequential addition of 40 µL of TEAB, 40 µL of 0.2% aqueous formic acid, and 40 µl of 50% acetonitrile, 0.2% formic acid, with centrifugation at 4,000 g for 4 min between each addition of elution buffer. The elution fractions were combined and then dried by vacuum centrifugation. Samples were reconstituted by adding 20 µL of 5% formic acid, shaking at 37 °C, and spinning at 15,000 g for 5 min. The supernatant of each sample was transferred to an auto-sample vial.
(§4) Data analysis. Mass spectrometry data from all samples were processed using COMET/PAWS against Uniprot_Human_database. Comet (v. 2016.01, rev. 3)^8 was used to search MS2 Spectra against a January 2023 version of canonical FASTA protein database containing human uniprot sequences, and concatenated sequence-reversed entries to estimate error thresholds and 179 common contaminant sequences and their reversed forms. The database processing was performed using python scripts available at https://github.com/pwilmart/fasta_utilities.git and Comet results were processed using the PAW pipeline2 from https://github.com/pwilmart/PAW_pipeline.git.

human plasma proteins [2] = target: T2, human plasma proteins (Homo sapiens, UniProt P06727)
T2 construct: incubated with 50% pooled human plasma at 37 °C for 2 h; from tissue; host or cells: pooled human plasma (50%)
T2 sequence (P06727 21-396): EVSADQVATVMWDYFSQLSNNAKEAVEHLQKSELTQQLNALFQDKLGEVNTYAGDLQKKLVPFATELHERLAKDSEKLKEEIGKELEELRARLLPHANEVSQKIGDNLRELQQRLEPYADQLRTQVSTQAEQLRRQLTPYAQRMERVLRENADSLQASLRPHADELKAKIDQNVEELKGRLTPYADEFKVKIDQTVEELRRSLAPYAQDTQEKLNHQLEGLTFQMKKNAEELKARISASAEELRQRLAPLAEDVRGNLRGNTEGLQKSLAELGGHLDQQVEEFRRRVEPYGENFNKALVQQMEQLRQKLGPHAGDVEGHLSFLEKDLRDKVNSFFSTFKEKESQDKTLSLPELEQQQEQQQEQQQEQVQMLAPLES
Procedure: as §1, §2, §3, §4

human plasma proteins [3] = target: T3, human plasma proteins (Homo sapiens, UniProt P02649)
T3 construct: incubated with 50% pooled human plasma at 37 °C for 2 h; from tissue; host or cells: pooled human plasma (50%)
Procedure: as §1, §2, §3, §4

human plasma proteins [4] = target: T4, human plasma proteins (Homo sapiens, UniProt O14791)
T4 construct: incubated with 50% pooled human plasma at 37 °C for 2 h; from tissue; host or cells: pooled human plasma (50%)
T4 sequence (O14791 28-398): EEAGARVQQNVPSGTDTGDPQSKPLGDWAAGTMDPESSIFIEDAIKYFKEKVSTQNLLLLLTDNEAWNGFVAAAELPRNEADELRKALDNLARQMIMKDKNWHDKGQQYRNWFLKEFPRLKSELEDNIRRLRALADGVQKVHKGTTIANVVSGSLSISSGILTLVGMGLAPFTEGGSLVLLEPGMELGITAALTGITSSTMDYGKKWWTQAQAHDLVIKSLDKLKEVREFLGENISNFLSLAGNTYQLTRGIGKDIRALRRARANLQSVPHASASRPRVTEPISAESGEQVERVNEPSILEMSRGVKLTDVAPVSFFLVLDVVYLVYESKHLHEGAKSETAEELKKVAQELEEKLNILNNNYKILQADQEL
Procedure: as §1, §2, §3, §4

human plasma proteins [5] = target: T5, human plasma proteins (Homo sapiens, UniProt P04114)
T5 construct: incubated with 50% pooled human plasma at 37 °C for 2 h; from tissue; host or cells: pooled human plasma (50%)
Procedure: as §1, §2, §3, §4

T5 sequence (P04114 28-4563): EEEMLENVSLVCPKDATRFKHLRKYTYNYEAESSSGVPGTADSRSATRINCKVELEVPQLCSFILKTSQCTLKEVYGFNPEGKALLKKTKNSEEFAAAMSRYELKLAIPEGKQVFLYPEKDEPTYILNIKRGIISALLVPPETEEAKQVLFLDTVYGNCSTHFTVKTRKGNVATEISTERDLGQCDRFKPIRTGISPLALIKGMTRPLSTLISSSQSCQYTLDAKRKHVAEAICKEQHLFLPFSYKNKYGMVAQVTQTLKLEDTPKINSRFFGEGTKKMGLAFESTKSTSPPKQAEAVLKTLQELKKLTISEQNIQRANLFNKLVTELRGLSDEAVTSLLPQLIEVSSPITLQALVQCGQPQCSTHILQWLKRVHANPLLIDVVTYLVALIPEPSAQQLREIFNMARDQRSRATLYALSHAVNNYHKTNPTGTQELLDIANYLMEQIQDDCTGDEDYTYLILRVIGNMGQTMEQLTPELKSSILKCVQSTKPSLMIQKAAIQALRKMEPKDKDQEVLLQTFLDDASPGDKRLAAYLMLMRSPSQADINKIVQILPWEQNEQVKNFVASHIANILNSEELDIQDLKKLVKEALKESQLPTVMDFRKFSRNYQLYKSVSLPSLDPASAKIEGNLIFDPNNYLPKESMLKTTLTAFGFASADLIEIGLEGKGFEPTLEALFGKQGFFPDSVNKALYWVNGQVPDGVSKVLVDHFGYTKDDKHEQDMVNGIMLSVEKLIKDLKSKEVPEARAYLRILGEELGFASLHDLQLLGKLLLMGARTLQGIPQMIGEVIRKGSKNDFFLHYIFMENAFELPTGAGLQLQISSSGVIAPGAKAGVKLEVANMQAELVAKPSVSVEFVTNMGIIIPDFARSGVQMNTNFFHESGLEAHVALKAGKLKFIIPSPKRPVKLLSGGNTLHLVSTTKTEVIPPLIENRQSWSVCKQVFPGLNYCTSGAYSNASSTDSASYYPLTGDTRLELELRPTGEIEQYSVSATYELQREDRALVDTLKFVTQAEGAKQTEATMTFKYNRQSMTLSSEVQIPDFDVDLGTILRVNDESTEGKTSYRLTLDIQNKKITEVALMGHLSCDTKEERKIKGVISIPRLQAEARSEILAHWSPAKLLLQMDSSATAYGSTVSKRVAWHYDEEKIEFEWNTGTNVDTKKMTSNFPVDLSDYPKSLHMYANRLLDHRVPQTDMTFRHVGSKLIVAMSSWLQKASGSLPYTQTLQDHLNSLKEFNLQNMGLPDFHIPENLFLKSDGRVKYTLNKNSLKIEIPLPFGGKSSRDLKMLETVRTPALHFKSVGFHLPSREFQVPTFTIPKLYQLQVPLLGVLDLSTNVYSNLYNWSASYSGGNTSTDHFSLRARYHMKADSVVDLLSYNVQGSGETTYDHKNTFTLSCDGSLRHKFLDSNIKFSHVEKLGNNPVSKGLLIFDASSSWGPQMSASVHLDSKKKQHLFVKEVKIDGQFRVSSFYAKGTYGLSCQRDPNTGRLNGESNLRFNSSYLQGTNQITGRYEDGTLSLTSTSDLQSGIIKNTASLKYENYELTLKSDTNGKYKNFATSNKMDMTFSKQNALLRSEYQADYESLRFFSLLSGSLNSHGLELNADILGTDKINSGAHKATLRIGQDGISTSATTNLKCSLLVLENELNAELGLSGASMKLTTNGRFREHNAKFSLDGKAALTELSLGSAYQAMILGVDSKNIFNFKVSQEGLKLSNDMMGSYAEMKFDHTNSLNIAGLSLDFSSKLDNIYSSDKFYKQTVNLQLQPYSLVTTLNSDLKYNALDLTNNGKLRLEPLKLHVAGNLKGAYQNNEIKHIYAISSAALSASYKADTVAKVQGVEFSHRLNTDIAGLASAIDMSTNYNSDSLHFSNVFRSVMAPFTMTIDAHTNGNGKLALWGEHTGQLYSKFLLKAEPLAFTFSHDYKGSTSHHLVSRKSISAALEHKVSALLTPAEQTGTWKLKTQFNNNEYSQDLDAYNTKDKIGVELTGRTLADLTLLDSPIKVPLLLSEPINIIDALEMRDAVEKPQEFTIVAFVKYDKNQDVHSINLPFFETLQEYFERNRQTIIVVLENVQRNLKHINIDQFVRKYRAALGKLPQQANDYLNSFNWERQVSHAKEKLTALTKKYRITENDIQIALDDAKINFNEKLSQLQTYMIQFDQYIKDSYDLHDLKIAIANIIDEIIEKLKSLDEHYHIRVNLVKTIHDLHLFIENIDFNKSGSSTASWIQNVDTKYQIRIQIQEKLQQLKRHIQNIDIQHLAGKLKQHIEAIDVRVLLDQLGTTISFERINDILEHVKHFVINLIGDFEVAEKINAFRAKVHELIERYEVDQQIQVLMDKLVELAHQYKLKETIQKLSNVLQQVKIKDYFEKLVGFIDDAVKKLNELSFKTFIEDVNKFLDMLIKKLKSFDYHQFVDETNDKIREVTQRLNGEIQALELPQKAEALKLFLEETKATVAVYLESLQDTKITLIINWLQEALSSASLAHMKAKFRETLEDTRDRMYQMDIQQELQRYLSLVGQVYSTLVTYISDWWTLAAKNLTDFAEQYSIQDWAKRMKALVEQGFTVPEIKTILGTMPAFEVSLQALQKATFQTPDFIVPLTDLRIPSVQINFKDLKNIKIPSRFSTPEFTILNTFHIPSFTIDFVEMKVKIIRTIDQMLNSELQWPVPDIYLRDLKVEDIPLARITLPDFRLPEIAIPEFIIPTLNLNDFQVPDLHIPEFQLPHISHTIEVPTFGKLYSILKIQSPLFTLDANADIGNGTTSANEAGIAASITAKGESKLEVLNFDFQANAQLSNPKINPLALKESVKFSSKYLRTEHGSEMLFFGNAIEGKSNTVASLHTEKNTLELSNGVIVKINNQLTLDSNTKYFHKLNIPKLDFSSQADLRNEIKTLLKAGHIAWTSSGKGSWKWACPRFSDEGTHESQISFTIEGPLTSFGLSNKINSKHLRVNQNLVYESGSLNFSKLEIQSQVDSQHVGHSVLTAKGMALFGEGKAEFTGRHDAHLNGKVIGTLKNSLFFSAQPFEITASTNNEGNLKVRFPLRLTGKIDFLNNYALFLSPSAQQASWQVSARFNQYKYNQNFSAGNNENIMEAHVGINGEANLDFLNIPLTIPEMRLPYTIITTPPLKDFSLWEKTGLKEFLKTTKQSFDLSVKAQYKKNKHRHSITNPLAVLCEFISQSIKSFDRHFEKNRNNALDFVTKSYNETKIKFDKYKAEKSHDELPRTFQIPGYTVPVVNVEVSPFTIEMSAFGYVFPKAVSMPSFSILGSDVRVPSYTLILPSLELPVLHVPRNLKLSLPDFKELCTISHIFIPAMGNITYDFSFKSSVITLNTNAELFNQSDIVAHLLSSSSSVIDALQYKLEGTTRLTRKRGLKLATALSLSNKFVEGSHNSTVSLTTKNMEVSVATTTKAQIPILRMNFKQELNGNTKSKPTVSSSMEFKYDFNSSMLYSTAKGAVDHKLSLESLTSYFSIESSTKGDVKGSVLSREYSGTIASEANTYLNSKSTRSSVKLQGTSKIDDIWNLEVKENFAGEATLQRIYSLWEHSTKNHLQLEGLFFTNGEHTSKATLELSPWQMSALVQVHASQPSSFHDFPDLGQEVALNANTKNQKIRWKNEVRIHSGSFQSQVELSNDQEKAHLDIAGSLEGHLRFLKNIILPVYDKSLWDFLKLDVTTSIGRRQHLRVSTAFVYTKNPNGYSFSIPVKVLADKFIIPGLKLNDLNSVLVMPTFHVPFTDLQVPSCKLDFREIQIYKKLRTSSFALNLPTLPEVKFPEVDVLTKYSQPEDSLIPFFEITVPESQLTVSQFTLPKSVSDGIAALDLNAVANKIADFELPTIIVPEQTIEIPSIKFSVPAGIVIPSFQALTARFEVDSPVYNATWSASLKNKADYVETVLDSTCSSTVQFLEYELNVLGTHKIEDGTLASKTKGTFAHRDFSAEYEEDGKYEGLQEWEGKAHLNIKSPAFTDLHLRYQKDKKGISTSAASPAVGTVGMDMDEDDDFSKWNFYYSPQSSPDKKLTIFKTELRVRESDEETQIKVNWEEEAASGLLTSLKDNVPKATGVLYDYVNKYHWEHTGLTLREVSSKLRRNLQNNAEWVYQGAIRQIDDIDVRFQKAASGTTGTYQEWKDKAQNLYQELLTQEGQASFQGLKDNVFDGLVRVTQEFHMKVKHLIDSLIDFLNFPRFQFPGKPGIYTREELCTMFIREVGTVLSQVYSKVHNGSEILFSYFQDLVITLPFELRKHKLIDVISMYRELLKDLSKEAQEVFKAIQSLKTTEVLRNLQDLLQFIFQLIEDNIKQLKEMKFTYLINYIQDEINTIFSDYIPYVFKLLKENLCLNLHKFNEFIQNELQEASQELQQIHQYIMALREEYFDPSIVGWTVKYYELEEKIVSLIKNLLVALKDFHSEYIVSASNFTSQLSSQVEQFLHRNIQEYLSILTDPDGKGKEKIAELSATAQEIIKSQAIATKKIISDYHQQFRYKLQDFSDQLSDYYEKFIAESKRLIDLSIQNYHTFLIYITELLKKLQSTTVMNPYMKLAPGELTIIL
T1 sequence (P02656 21-99): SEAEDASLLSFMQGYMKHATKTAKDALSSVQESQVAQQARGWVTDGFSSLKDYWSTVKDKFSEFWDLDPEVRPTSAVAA
T3 sequence (P02649 19-317): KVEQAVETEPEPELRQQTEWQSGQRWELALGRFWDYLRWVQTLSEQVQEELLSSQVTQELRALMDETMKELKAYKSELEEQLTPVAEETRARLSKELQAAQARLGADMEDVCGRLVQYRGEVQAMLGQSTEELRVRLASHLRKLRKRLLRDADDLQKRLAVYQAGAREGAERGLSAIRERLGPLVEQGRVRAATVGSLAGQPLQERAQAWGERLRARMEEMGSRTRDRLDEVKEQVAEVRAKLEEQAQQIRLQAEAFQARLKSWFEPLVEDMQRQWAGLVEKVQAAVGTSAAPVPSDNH

CCCCCCCCCCCCCCCC(=O)NCC(=O)NCC(=O)NCC(=O)N[C@@H](Cc1c[nH]cn1)C(=O)N[C@@H](C)C(=O)N[C@@H](C)C(=O)N[C@@H](CC(N)=O)C(=O)NCC(=O)N[C@@H](CCC(=O)O)C(=O)N[C@@H](CCC(=O)O)C(=O)N[C@@H](CS)C(=O)N[C@@H](CCC(=O)O)C(=O)O [SA‐E] (Palmitoyl-GGGHAANGEECE-OH)
Percentage, Apolipoprotein C-III (human plasma proteins [1]; replicate 1): 0.1% | Total Counts, Apolipoprotein C-III (human plasma proteins [1]; replicate 1): 4 | Percentage, Apolipoprotein C-III (human plasma proteins [1]; replicate 2): 0.2% | Total Counts, Apolipoprotein C-III (human plasma proteins [1]; replicate 2): 5 | Percentage, Apolipoprotein A-IV (human plasma proteins [2]; replicate 1): 1.1% | Total Counts, Apolipoprotein A-IV (human plasma proteins [2]; replicate 1): 39 | Percentage, Apolipoprotein A-IV (human plasma proteins [2]; replicate 2): 0.6% | Total Counts, Apolipoprotein A-IV (human plasma proteins [2]; replicate 2): 16 | Percentage, Apolipoprotein E (human plasma proteins [3]; replicate 1): 1.8% | Total Counts, Apolipoprotein E (human plasma proteins [3]; replicate 1): 66 | Percentage, Apolipoprotein E (human plasma proteins [3]; replicate 2): 2.1% | Total Counts, Apolipoprotein E (human plasma proteins [3]; replicate 2): 59 | Percentage, Apolipoprotein L1 (human plasma proteins [4]; replicate 1): 0.2% | Total Counts, Apolipoprotein L1 (human plasma proteins [4]; replicate 1): 7 | Percentage, Apolipoprotein L1 (human plasma proteins [4]; replicate 2): 0.2% | Total Counts, Apolipoprotein L1 (human plasma proteins [4]; replicate 2): 7 | Percentage, Apolipoprotein B-100 (human plasma proteins [5]; replicate 1): 4.7% | Total Counts, Apolipoprotein B-100 (human plasma proteins [5]; replicate 1): 166 | Percentage, Apolipoprotein B-100 (human plasma proteins [5]; replicate 2): 6.0% | Total Counts, Apolipoprotein B-100 (human plasma proteins [5]; replicate 2): 170

From PMC12801355, “Peptide Amphiphiles Hitchhike on Endogenous Biomolecules for Enhanced Cancer Imaging and Therapy” (Advanced Materials (Deerfield Beach, Fla.), 2025)
